Where two headings read alike, the source gives them in different places.
Legend:
[1] = biological target: T1, human NK2 receptor (Homo sapiens, UniProt P21452); assay: Binding assay of NK2 receptor expressed in COS or CHO cells, displacement of 125I-NKA (Table 1, hNK2)
T1 construct: expressed in transfected cells
T1 sequence (P21452 1-398): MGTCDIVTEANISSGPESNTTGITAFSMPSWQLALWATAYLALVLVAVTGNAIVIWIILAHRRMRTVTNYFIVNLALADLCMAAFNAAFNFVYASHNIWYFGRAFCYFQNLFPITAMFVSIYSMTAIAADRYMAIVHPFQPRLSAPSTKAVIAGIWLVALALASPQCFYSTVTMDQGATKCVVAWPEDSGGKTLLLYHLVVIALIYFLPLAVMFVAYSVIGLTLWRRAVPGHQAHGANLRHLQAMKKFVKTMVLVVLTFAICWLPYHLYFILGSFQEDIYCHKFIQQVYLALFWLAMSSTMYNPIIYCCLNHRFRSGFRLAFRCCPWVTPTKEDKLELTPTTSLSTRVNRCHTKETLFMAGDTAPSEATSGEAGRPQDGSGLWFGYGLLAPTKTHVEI
Experimental: (§1) A. Receptor Expression in COS
(§2) To express the cloned human neurokinin-1 receptor (NK 1R) transiently in COS, the cDNA for the human NK 1R was cloned into the expression vector pCDM9 which was derived from pCDM 8 (INVITROGEN) by inserting the ampicillin resistance gene (nucleotide 1973 to 2964 from BLUESCRIPT SK+) into the Sac II site. Transfection of 20 μg of the plasmid DNA into 10 million COS cells was achieved by electroporation in 800 μl of transfection buffer (135 mM NaCl, 1.2 mM CaCl2, 1.2 mM MgCl2, 2.4 mM K2 HPO4, 0.6 mM KH2 PO4, 10 mM glucose, 10 mM HEPES pH 7.4) at 260 V and 950 uF using the IBI GENEZAPPER (IBI, New Haven, Conn.). The cells were incubated in 10% fetal calf serum, 2 mM glutamine, 100 U/ml penicillin-streptomycin, and 90% DMEM media (GIBCO, Grand Island, N.Y.) in 5% CO2 at 37° C. for three days before the binding assay. Similar methods were used to express the NK2 receptor.
(§3) B. Stable Expression in CHO
(§4) To establish a stable cell line expressing the cloned human NK1R, the cDNA was subcloned into the vector pRcCMV (INVITROGEN). Transfection of 20 μg of the plasmid DNA into CHO cells was achieved by electroporation in 800 μl of transfection buffer suplemented with 0.625 mg/ml Herring sperm DNA at 300 V and 950 uF using the IBI GENEZAPPER (IBI). The transfected cells were incubated in CHO media (10% fetal calf serum, 100 U/ml pennicilin-streptomycin, 2 mM glutamine, 1/500 hypoxanthine-thymidine(ATCC), 90% IMDM media (JRH BIOSCIENCES, Lenexa, Kans.), 0.7 mg/ml G418 (GIBCO)) in 5% CO2 at 37° C. until colonies were visible. Each colony was separated and propagated. The cell clone with the highest number of human NK1R was selected for subsequent applications such as drug screening. Similar methods were used to express the human NK2 receptor.
(§5) C. Assay Protocol using COS or CHO The binding assay of human NK1R expressed in either COS or CHO cells is based on the use of ^125 I-substance P (^125 I-SP, from DU PONT, Boston, Mass.) as a radioactively labeled ligand which competes with unlabeled substance P or any other ligand for binding to the human NK1R. […] In the binding assay, 500 μl of cells were added to a tube containing 20 μl of 1.5 to 0.25 nM of ^125 I-SP and 5 μl of unlabeled substance P or any other test compound in DMSO. The tubes were incubated at 4° C. or at room temperature for 1 hour with gentle shaking. The bound radioactivity was separated from unbound radioactivity by GF/C filter (BRANDEL, Gaithersburg, Md.) which was pre-wetted with 0.1% polyethylenimine. The filter was washed with 3 ml of wash buffer (50 mM Tris pH 7.5, 5 mM MnCl2, 150 mM NaCl) three times and its radioactivity was determined by gamma counter. A similar assay was used for NK2 except ^125 I-NKA was used as the ligand.

[2] = biological target: T2, human NK1R (Homo sapiens, UniProt P25103); assay: Binding assay of human NK1R expressed in COS or CHO cells, displacement of 125I-substance P (Table 1, hNK1)
T2 construct: expressed in transfected cells
Experimental: as §1, §2, §3, §4, §5

[3] = human NK2 receptor, 125I-NKA ligand, read-out: hNK2 (IC50 nM)
[4] = human NK1 receptor, 125I-substance P ligand, read-out: hNK1 (IC50 nM)

T2 sequence (P25103 whole entry): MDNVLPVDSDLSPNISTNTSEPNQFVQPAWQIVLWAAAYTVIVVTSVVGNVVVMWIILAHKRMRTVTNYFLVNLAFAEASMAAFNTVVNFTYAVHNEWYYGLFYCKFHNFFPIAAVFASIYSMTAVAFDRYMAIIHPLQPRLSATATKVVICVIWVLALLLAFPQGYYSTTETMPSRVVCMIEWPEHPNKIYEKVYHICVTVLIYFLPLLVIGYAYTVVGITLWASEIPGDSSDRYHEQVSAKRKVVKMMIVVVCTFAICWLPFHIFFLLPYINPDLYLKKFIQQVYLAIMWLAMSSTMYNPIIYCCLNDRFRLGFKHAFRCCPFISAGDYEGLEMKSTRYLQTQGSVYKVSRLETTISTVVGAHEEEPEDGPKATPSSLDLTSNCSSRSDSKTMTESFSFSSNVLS

Row | Compound | IC50 [1, 3] | IC50 [2, 4] | IC50 [1] | IC50 [2]
1 | O=C(OCc1cc(C(F)(F)F)cc(C(F)(F)F)c1)[C@H](Cc1c[nH]c2ccccc12)NC(=O)N1CCC2(C=Cc3ccccc32)CC1 [Example 3, 3,5-Bistrifluoromethylbenzyl 2-(S)-((spiro-1H-indene-1,4'-piperidino)-carbonyl-amino)-3-(3-indolyl)propionate] | > 1000 nM | 1 nM | – | –
2 | CN(Cc1ccccc1)C(=O)[C@H](Cc1c[nH]c2ccccc12)NC(=O)N1CCC2(C=Cc3ccccc32)CC1 [Example 1, N-Benzyl-N-methyl-2-(S)-((spiro-1H-indene-1,4'-piperidino)-carbonyl-amino)-3-(3-indolyl)propionamide] | 10 nM | 40 nM | – | –
3 | N-(1(R)-Phenylpropyl)-N-methyl-2(S)-((spiroindane-1,4'-piperidino)-carbonyl-amino)-3-(3-indolyl)propionamide [Example 24] | 50 nM | 1000 nM | – | –
4 | CN(Cc1ccccc1)C(=O)[C@H](Cc1c[nH]c2ccccc12)NC(=O)N1CCC(c2ccccc2)CC1 [Example 7] | 50 nM | 60 nM | – | –
5 | CN(Cc1ccccc1)C(=O)[C@H](Cc1c[nH]c2ccccc12)NC(=O)N1CCC(N2C(=O)NCc3ccccc32)CC1 [Example 11] | – | – | 60 nM | 100 nM
6 | N-(1(S)-Phenylpropyl)-N-methyl-2(S)-((spiroindane-1,4'-piperidino)-carbonyl-amino)-3-(3-indolyl)propionamide [Example 23] | 30 nM | 650 nM | – | –
7 | N-(1(S)-phenyl)ethyl-N-methyl-2-(S)-((1-methanesulfonyl-spiroindoline-3,4'- piperidino)-carbonyl-amino)-3-(3-indolyl)propionamide [Example 30] | 70 nM | 10 nM | – | –

Second part, led by results:

Row | IC50 [1, 3] | IC50 [2, 4] | Compound | IC50 [1] | IC50 [2]
8 | 200 nM | 100 nM | Cc1ccc(CNC(=O)[C@H](Cc2c[nH]c3ccccc23)NC(=O)N2CCC3(CCc4ccccc43)CC2)cc1 [Example 18, N-(4-Methylbenzyl)-2-(S)-((spiroindane-1,4'-piperidino)-carbonyl-amino)-3-(3-indolyl)propionamide] | – | –
9 | 65 nM | 60 nM | Cc1cccc(CNC(=O)[C@H](Cc2c[nH]c3ccccc23)NC(=O)N2CCC3(CCc4ccccc43)CC2)c1 [Example 17, N-(3-Methylbenzyl)-2-(S)-((spiroindane-1,4'-piperidino)-carbonyl-amino)-3-(3-indolyl)propionamide] | – | –
10 | 60 nM | 400 nM | CN(Cc1ccccc1)C(=O)[C@H](CCc1ccccc1)NC(=O)N1CCC2(CC1)CN(S(C)(=O)=O)c1ccccc12 [Example 34, N-Benzyl-N-methyl-2-(S)-((1-methanesulfonyl-spiroindoline-3,4'-piperidino)-carbonyl-amino)-4-phenylbutyramide] | – | –
11 | 15 nM | 100 nM | Cc1ccccc1CNC(=O)[C@H](Cc1c[nH]c2ccccc12)NC(=O)N1CCC2(CCc3ccccc32)CC1 [Example 16, N-(2-Methylbenzyl)-2-(S)-((spiroindane-1,4'-piperidino)-carbonyl-amino)-3-(3-indolyl)propionamide] | – | –
12 | 200 nM | 575 nM | CN(Cc1ccccc1)C(=O)[C@@H](NC(=O)N1CCC2(C=Cc3ccccc32)CC1)c1ccccc1 [Example 37, N-Benzyl-N-methyl-2-(S)-((spiroindine-1,4'-piperidino)-carbonyl-amino)-2-phenylacetamide] | – | –
13 | 85 nM | 8 nM | Cc1cccc(CN(C)C(=O)[C@H](Cc2c[nH]c3ccccc23)NC(=O)N2CCC3(CC2)CN(S(C)(=O)=O)c2ccccc23)c1 [Example 25, N-(3-Methylphenyl)methyl-N-methyl-2-(S)-((1-methanesulfonyl-spiroindoline-3,4'-piperidino)-carbonyl-amino)-3-(3-indolyl)propionamide] | – | –
14 | 28 nM | 1000 nM | C[C@@H](NC(=O)[C@H](Cc1c[nH]c2ccccc12)NC(=O)N1CCC2(CCc3ccccc32)CC1)c1ccccc1 [Example 22, N-(1(R)-Phenylethyl)-2(S)-((spiroindane-1,4'-piperidino)-carbonyl-amino)-3-(3-indolyl)propionamide] | – | –
15 | 25 nM | 120 nM | CCN(Cc1ccccc1)C(=O)[C@H](Cc1c[nH]c2ccccc12)NC(=O)N1CCC2(CCc3ccccc32)CC1 [Example 20, N-Benzyl-N-ethyl-2-(S)-((spiroindane-1,4'-piperidino)-carbonyl-amino)-3-(3-indolyl)propionamide] | – | –
